pIC50: −log10 of the molar value. Activity calls are given as the source filed them. No cut-off for these calls is given here.
Legend:
U-937 = test: Antiproliferative activity against human U-937 cells assessed as inhibition of cell growth measured after 72 hrs by CCK8 assay; assay type: functional, cell-based; conditions: U-937, 72 h
HL-60 = test: Antiproliferative activity against human HL-60 cells assessed as inhibition of cell growth measured after 72 hrs by CCK8 assay; assay type: functional, cell-based; conditions: HL-60, 72 h
K562 [1] = test: Antiproliferative activity against human K562 cells assessed as inhibition of cell growth measured after 72 hrs by CCK8 assay; assay type: functional, cell-based; conditions: K562, 72 h
NCI-H1299 = test: Antiproliferative activity against human NCI-H1299 cells assessed as inhibition of cell growth measured after 72 hrs by CCK8 assay; assay type: functional, cell-based; conditions: NCI-H1299, 72 h
NCI-H716 = test: Antiproliferative activity against human NCI-H716 cells assessed as inhibition of cell growth measured after 72 hrs by CCK8 assay; assay type: functional, cell-based; conditions: NCI-H716, 72 h
K562 [2] = test: Downregulation of Bcr-Abl expression in human K562 cells incubated for 24 hrs by Western blotting analysis; assay type: functional, cell-based; conditions: dose 11.1-900 nM
OCI-Ly3 = test: Antiproliferative activity against human OCILY3 cells assessed as inhibition of cell growth measured after 72 hrs by CCK8 assay; assay type: functional, cell-based; conditions: OCI-Ly3, 72 h
HCT-116 = test: Antiproliferative activity against human HCT-116 cells assessed as inhibition of cell growth measured after 72 hrs by CCK8 assay; assay type: functional, cell-based; conditions: HCT-116, 72 h
Huh-7 = test: Antiproliferative activity against human Huh-7 cells assessed as inhibition of cell growth measured after 72 hrs by CCK8 assay; assay type: functional, cell-based; conditions: Huh-7, 72 h
MDA-MB-453 = test: Antiproliferative activity against human MDA-MB-453 cells assessed as inhibition of cell growth measured after 72 hrs by CCK8 assay; assay type: functional, cell-based; conditions: MDA-MB-453, 72 h
MOLT-4 = test: Antiproliferative activity against human MOLT-4 cells assessed as inhibition of cell growth measured after 72 hrs by CCK8 assay; assay type: functional, cell-based; conditions: MOLT-4, 72 h
MV4-11 = test: Antiproliferative activity against human MV4-11 cells assessed as inhibition of cell growth measured after 72 hrs by CCK8 assay; assay type: functional, cell-based; conditions: MV4-11, 72 h
NCI-H1975 = test: Antiproliferative activity against human NCI-H1975 cells assessed as inhibition of cell growth measured after 72 hrs by CCK8 assay; assay type: functional, cell-based; conditions: NCI-H1975, 72 h
K562 [3] = test: Downregulation of Myc expression in human K562 cells incubated for 24 hrs by Western blotting analysis; assay type: functional, cell-based; conditions: dose 11.1-900 nM
K562 [4] = test: Downregulation of p38 expression in human K562 cells at 11.1 to 900 nM incubated for 24 hrs by Western blotting analysis; assay type: functional, cell-based; conditions: dose 11.1-900 nM
K562 [5] = test: Downregulation of HSP90 expression in human K562 cells at 11.1 to 900 nM incubated for 24 hrs by Western blotting analysis; assay type: functional, cell-based; conditions: dose 11.1-900 nM
[6] = Cytotoxicity against human HL7702 cells assessed as inhibition of cell growth measured after 72 hrs by CCK8 assay; assay type: toxicity, cell-based; conditions: HL7702 (L02) cells
K562 [7] = test: Downregulation of Mcl-1 expression in human K562 cells incubated for 24 hrs by Western blotting analysis; assay type: functional, cell-based; conditions: dose 11.1-900 nM
BaF3 = test: Antiproliferative activity against mouse BaF3 cells expressing Bcr/Abl-T315I mutant assessed as inhibition of cell growth measured after 72 hrs by CCK8 assay; assay type: functional, cell-based; conditions: BaF3, 72 h
A204 = test: Antiproliferative activity against human A204 cells assessed as inhibition of cell growth measured after 72 hrs by CCK8 assay; assay type: functional, cell-based; conditions: A204, 72 h
4T1 = test: Antiproliferative activity against mouse 4T1 cells assessed as inhibition of cell growth measured after 72 hrs by CCK8 assay; assay type: functional, cell-based; conditions: 4T1, 72 h

Row | Compound | pIC50 (U-937) | pIC50 (HL-60) | pIC50 (K562 [1]) | further results
1 | COC(=O)C[C@H](Cc1ccc(NC(=O)OC(C)(C)C)cc1)C(=O)O[C@@H]1C(OC)=C[C@]23CCCN2CCc2cc4c(cc2[C@H]13)OCO4 | 6.89 | 6.81 | 6.83 | –
2 | COC(=O)C[C@H](Cc1ccccc1O)C(=O)O[C@@H]1C(OC)=C[C@]23CCCN2CCc2cc4c(cc2[C@H]13)OCO4 | 6.09 | 6.14 | 6.17 | –
3 | COC1=C[C@]23CCCN2CCc2cc4c(cc2[C@@H]3[C@@H]1O)OCO4 [CEPHALOTAXINE] | < 4.52 | < 4.52 | < 4.52 | –
4 | COC(=O)C[C@@H](Cc1ccc(F)cc1)C(=O)O[C@@H]1C(OC)=C[C@]23CCCN2CCc2cc4c(cc2[C@H]13)OCO4 | 6.17 | 6.22 | 6.43 | –
5 | COC(=O)C[C@H](C)C(=O)O[C@@H]1C(OC)=C[C@]23CCCN2CCc2cc4c(cc2[C@H]13)OCO4 | 4.86 | 4.74 | 4.84 | –
6 | COC(=O)C[C@H](Cc1cccc(OCc2ccccc2)c1)C(=O)O[C@@H]1C(OC)=C[C@]23CCCN2CCc2cc4c(cc2[C@H]13)OCO4 | 6.61 | 6.69 | 6.82 | –
7 | COC(=O)C[C@H](Cc1cccc(O)c1)C(=O)O[C@@H]1C(OC)=C[C@]23CCCN2CCc2cc4c(cc2[C@H]13)OCO4 | 6.75 | 6.74 | 6.86 | –
8 | COC(=O)C[C@@H](Cc1ccccc1)C(=O)O[C@@H]1C(OC)=C[C@]23CCCN2CCc2cc4c(cc2[C@H]13)OCO4 | 6.14 | 6.26 | 6.39 | –
9 | COC(=O)C[C@H](Cc1ccc(Br)cc1)C(=O)O[C@@H]1C(OC)=C[C@]23CCCN2CCc2cc4c(cc2[C@H]13)OCO4 | 6.03 | 6.15 | 6.26 | –
10 | COC(=O)C[C@H](CCC(C)(C)C)C(=O)O[C@@H]1C(OC)=C[C@]23CCCN2CCc2cc4c(cc2[C@H]13)OCO4 | 5.91 | 6.04 | 6.43 | –
11 | COC(=O)C[C@H](Cc1cccc(Br)c1)C(=O)O[C@@H]1C(OC)=C[C@]23CCCN2CCc2cc4c(cc2[C@H]13)OCO4 | 6.67 | 6.63 | 6.69 | –
12 | COC(=O)C[C@@H](Cc1cccs1)C(=O)O[C@@H]1C(OC)=C[C@]23CCCN2CCc2cc4c(cc2[C@H]13)OCO4 | 6.56 | 6.61 | 6.73 | –
13 | COC(=O)C[C@H](Cc1ccc(OCc2ccccc2)cc1)C(=O)O[C@@H]1C(OC)=C[C@]23CCCN2CCc2cc4c(cc2[C@H]13)OCO4 | 6.76 | 6.82 | 6.99 | –
14 | COC(=O)C[C@H](Cc1ccc(N)cc1)C(=O)O[C@@H]1C(OC)=C[C@]23CCCN2CCc2cc4c(cc2[C@H]13)OCO4 | 6.92 | 6.89 | 6.95 | pIC50 (NCI-H1299): 6.76; pIC50 (NCI-H716): 6.97; Activity (K562 [2]): Dose-Dependent Effect; pIC50 (OCI-Ly3): 7.24; pIC50 (HCT-116): 6.97; pIC50 (Huh-7): 6.67; pIC50 (MDA-MB-453): 7.15; pIC50 (MOLT-4): 7.22; pIC50 (MV4-11): 7.01; pIC50 (NCI-H1975): 4.93; Activity (K562 [3]): Dose-Dependent Effect; Activity (K562 [4]): inactive; Activity (K562 [5]): inactive; IC50 at 72 h [6]: 0.494 µM; Activity (K562 [7]): Dose-Dependent Effect; pIC50 (BaF3): 6.61; pIC50 (A204): 7.42; pIC50 (4T1): 6.53
15 | Cc1ccc(NC(=O)c2ccc(CN3CCN(C)CC3)cc2)cc1Nc1nccc(-c2cccnc2)n1 [IMATINIB] | 4.78 | 4.54 | 6.87 | –
16 | CCOC(=O)C[C@H](Cc1ccc(O)cc1)C(=O)O[C@@H]1C(OC)=C[C@]23CCCN2CCc2cc4c(cc2[C@H]13)OCO4 | 6.08 | 6.24 | 6.24 | –
17 | COC(=O)C[C@H](Cc1cccc(F)c1)C(=O)O[C@@H]1C(OC)=C[C@]23CCCN2CCc2cc4c(cc2[C@H]13)OCO4 | 6.76 | 6.91 | 6.91 | –
18 | COC(=O)C[C@](O)(CCCC(C)(C)O)C(=O)O[C@@H]1C(OC)=C[C@]23CCCN2CCc2cc4c(cc2[C@H]13)OCO4 [OMACETAXINE MEPESUCCINATE] | 7.92 | 7.89 | 7.85 | pIC50 (NCI-H1299): 7.66; pIC50 (NCI-H716): 7.19; pIC50 (OCI-Ly3): 8.30; pIC50 (HCT-116): 7.89; pIC50 (Huh-7): 7.40; pIC50 (MDA-MB-453): 7.68; pIC50 (MOLT-4): 8.15; pIC50 (MV4-11): 8.30; pIC50 (NCI-H1975): 7.66; IC50 at 72 h [6]: 0.064 µM; pIC50 (BaF3): 7.09; pIC50 (A204): 8.40; pIC50 (4T1): 7.22
19 | COC(=O)C[C@H](Cc1ccccc1)C(=O)O[C@@H]1C(OC)=C[C@]23CCCN2CCc2cc4c(cc2[C@H]13)OCO4 | 6.77 | 6.81 | 7.02 | –
20 | COC(=O)C[C@H](Cc1ccc2ccccc2c1)C(=O)O[C@@H]1C(OC)=C[C@]23CCCN2CCc2cc4c(cc2[C@H]13)OCO4 | 6.36 | 6.40 | 6.46 | –
21 | CCOC(=O)C[C@H](Cc1ccc(OCc2ccccc2)cc1)C(=O)O[C@@H]1C(OC)=C[C@]23CCCN2CCc2cc4c(cc2[C@H]13)OCO4 | 5.98 | 6.05 | 6.16 | –
22 | COC(=O)C[C@H](Cc1ccccc1Br)C(=O)O[C@@H]1C(OC)=C[C@]23CCCN2CCc2cc4c(cc2[C@H]13)OCO4 | 6.15 | 6.27 | 6.33 | –
23 | COC(=O)C[C@H](Cc1ccc(OC(C)=O)cc1)C(=O)O[C@@H]1C(OC)=C[C@]23CCCN2CCc2cc4c(cc2[C@H]13)OCO4 | 6.69 | 6.85 | 6.92 | –
24 | COC(=O)C[C@H](Cc1ccccc1OCc1ccccc1)C(=O)O[C@@H]1C(OC)=C[C@]23CCCN2CCc2cc4c(cc2[C@H]13)OCO4 | 6.14 | 6.24 | 6.32 | –
25 | COC(=O)C[C@H](Cc1cccc(NC(=O)OC(C)(C)C)c1)C(=O)O[C@@H]1C(OC)=C[C@]23CCCN2CCc2cc4c(cc2[C@H]13)OCO4 | 6.59 | 6.70 | 6.79 | –
26 | COC(=O)C[C@H](Cc1ccc(F)cc1)C(=O)O[C@@H]1C(OC)=C[C@]23CCCN2CCc2cc4c(cc2[C@H]13)OCO4 | 6.54 | 6.58 | 6.68 | –
27 | COC(=O)C[C@H](Cc1ccc(O)cc1)C(=O)O[C@@H]1C(OC)=C[C@]23CCCN2CCc2cc4c(cc2[C@H]13)OCO4 | 6.82 | 6.82 | 7.02 | –
28 | COC(=O)C[C@H](Cc1cccc(N)c1)C(=O)O[C@@H]1C(OC)=C[C@]23CCCN2CCc2cc4c(cc2[C@H]13)OCO4 | 6.67 | 6.84 | 6.92 | –
29 | Cc1nc(Nc2ncc(C(=O)Nc3c(C)cccc3Cl)s2)cc(N2CCN(CCO)CC2)n1 [DASATINIB] | 4.82 | 4.82 | 9.00 | –

From ChEMBL document CHEMBL5247597, “Enantioselective semisynthesis of novel cephalotaxine esters with potent antineoplastic activities against leukemia” (Eur J Med Chem, 2022)
